Active and inactive are the calls of the source. Bounds are passed on as bounds.

The target in series [1] is Genome polyprotein (dengue virus type 2) (UniProt P29990). Briefly: Inhibition of Dengue virus serotype 2 NS2B-NS3 protease expressed in Escherichia coli BL21 lambda (DE3) cells at 50 uM using Abz-Nle-Lys-Arg-Arg-Ser-3-(NO2)Tyr as substrate preincubated for 15 mins followed by substrate addition and measured after 15 mins by HPLC analysis relative to control.
The target in series [2] is Genome polyprotein (West Nile virus) (UniProt P06935). Briefly: Inhibition of West Nile virus NS2B-NS3 protease expressed in Escherichia coli BL21 lambda (DE3) cells at 50 uM using Abz-Gly-Leu-Lys-Arg-Gly-Gly-3-(NO2)Tyr as substrate preincubated for 15 mins followed by substrate addition measured after 15 mins by HPLC analysis relative to control.
Series [3] can be described thus: Cytotoxicity against human HeLa cells assessed as reduction in cell viability measured after 24 hrs by celltiter-blue assay. The series is classed as cell-based.
For a further series, the target named is Trypsin (Homo sapiens, UniProt P07477+P07478+P35030). Briefly: Inhibition of trypsin (unknown origin) at 50 uM using Boc-Val-Pro-Arg-AMC as substrate preincubated for 15 mins followed by substrate addition and measured for 15 mins by fluorimetric assay relative to control. The series is classed as protein assay. The conditions noted are these: 0.25 h, 50 µM.

The target in series [4] is T1, Genome polyprotein (dengue virus type 2, UniProt P29990). Briefly: Inhibition of Dengue virus serotype 2 NS2B-NS3 protease transfected in human HeLa cells measured after 24 hrs by Renilla-luciferase reporter gene assay. The series is classed as cell-based.
In series [5] the target is Genome polyprotein (dengue virus type 2) (UniProt P29990). Briefly: Inhibition of Dengue virus serotype 2 NS2B-NS3 protease expressed in Escherichia coli BL21 lambda (DE3) cells measured after 1 hr by tryptophan fluorescence quenching method.
Series [6] concerns the target T2, Genome polyprotein (West Nile virus, UniProt P06935). Briefly: Inhibition of West Nile virus NS2B-NS3 protease expressed in Escherichia coli BL21 lambda (DE3) cells using Abz-Gly-Leu-Lys-Arg-Gly-Gly-3-(NO2)Tyr as substrate preincubated for 15 mins followed by substrate addition measured after 15 mins by HPLC analysis.
Series [7] has as its target Genome polyprotein (dengue virus type 2) (UniProt P29990). Briefly: Inhibition of Dengue virus serotype 2 NS2B-NS3 protease transfected in human HeLa cells at 12.5 uM measured after 24 hrs by Renilla-luciferase reporter gene assay relative to control. The series is classed as cell-based.
In series [8] the target is T1, Genome polyprotein. Briefly: Inhibition of Dengue virus serotype 2 NS2B-NS3 protease expressed in Escherichia coli BL21 lambda (DE3) cells using Abz-Nle-Lys-Arg-Arg-Ser-3-(NO2)Tyr as substrate preincubated for 15 mins followed by substrate addition and measured after 15 mins by HPLC analysis.
The target in series [9] is Genome polyprotein (dengue virus type 2) (UniProt P29990). Briefly: Inhibition of Dengue virus serotype 2 NS2B-NS3 protease expressed in Escherichia coli BL21 lambda (DE3) cells at 50 uM measured after 1 hr in presence of DENV protease inhibitor aprotinin by tryptophan fluorescence quenching method.
The target of a further series is Prothrombin (Homo sapiens, UniProt P00734). Briefly: Inhibition of thrombin (unknown origin) at 25 uM using Boc-Val-Pro-Arg-AMC as substrate preincubated for 15 mins followed by substrate addition and measured for 15 mins by fluorimetric assay. The conditions noted are these: 0.25 h.
Series [10] is described as follows: Drug metabolism in pH 9 Tris-HCl buffer assessed as racemization incubated for 96 hrs at 37 degC RP-HPLC analysis. The series is classed as physicochemical. The conditions noted are these: pH 9, 96 h.
Series [11] in a line: Drug metabolism in pH13 sodium hydroxide solution assessed as racemization incubated for 96 hrs at 37 degC RP-HPLC analysis. The series is classed as physicochemical. The conditions noted are these: pH 13, 96 h.
Series [12] addresses T1, Genome polyprotein. Briefly: Inhibition of Dengue virus serotype 2 NS2B-NS3 protease expressed in Escherichia coli BL21 lambda (DE3) cells using Abz-Nle-Lys-Arg-Arg-Ser-3-(NO2)Tyr as substrate preincubated for 15 mins followed by substrate addition and measured for 15 mins by FRET assay.
Series [13] addresses Genome polyprotein (West Nile virus) (UniProt P06935). Briefly: Competitive inhibition of West Nile virus NS2B-NS3 protease expressed in Escherichia coli BL21 lambda (DE3) cells using varying levels of Abz-Gly-Leu-Lys-Arg-Gly-Gly-3-(NO2)Tyr as substrate by Cheng-Prusoff plot analysis.
The target in series [14] is T2, Genome polyprotein. Briefly: Inhibition of West Nile virus NS2B-NS3 protease expressed in Escherichia coli BL21 lambda (DE3) cells using Abz-Gly-Leu-Lys-Arg-Gly-Gly-3-(NO2)Tyr as substrate preincubated for 15 mins followed by substrate addition measured for 15 mins by fluorimetric analysis.
For series [15], the target named is Genome polyprotein (dengue virus type 2) (UniProt P29990). Briefly: Inhibition of Dengue virus serotype 2 NS2B-NS3 protease expressed in Escherichia coli BL21 lambda (DE3) cells at 50 uM using Abz-Nle-Lys-Arg-Arg-Ser-3-(NO2)Tyr as substrate preincubated for 15 mins followed by substrate addition and measured for 15 mins by FRET assay relative to control.
Series [16] can be described thus: Drug metabolism in pH13 sodium hydroxide solution assessed as racemization incubated for 96 hrs at room temperature RP-HPLC analysis. The series is classed as physicochemical. The conditions noted are these: pH 13, 96 h.
Series [17] is described as follows: Permeability of the compound assessed as drug level in acceptor plate at 200 uM measured after 5 hrs at pH 7.4 by PAMPA. The series is classed as ADME. The conditions noted are these: pH 7.4, 5 h.
Another series deals with Huh-7. Briefly: Cytotoxicity against human HuH7 cells assessed as reduction in cell viability at 12 uM measured after 48 hrs by celltiter-blue assay. The series is classed as cell-based. The conditions noted are these: huh-7, 48 h.
Series [18] can be described thus: Permeability of the compound assessed as mass retention at 200 uM measured after 5 hrs at pH 7.4 by PAMPA. The conditions noted are these: pH 7.4, 5 h. The series is classed as ADME.
A short description of series [19]: Permeability of the compound assessed as drug level in donor plate at 200 uM measured after 5 hrs at pH 7.4 by PAMPA. The series is classed as ADME. The conditions noted are these: pH 7.4, 5 h.
Series [20] has as its target Genome polyprotein (West Nile virus) (UniProt P06935). Briefly: Inhibition of West Nile virus NS2B-NS3 protease expressed in Escherichia coli BL21 lambda (DE3) cells at 50 uM using Abz-Gly-Leu-Lys-Arg-Gly-Gly-3-(NO2)Tyr as substrate preincubated for 15 mins followed by substrate addition measured for 15 mins by fluorimetric analysis relative to control.
The test system of series [21] is dengue virus type 2. Briefly: Antiviral activity against DENV2 infected in human HuH7 cells assessed as reduction in virus titer at 10 uM measured after 48 hrs relative to control. The series is classed as functional. The conditions noted are these: Huh-7, 48 h.
Series [22] in a line: Drug metabolism in pH 7 DENV2proHeLa medium assessed as racemization incubated for 96 hrs at 37 degC RP-HPLC analysis. The series is classed as physicochemical. The conditions noted are these: pH 7, 96 h.
Series [23] is described as follows: Permeability of the compound at 200 uM measured after 5 hrs at pH 7.4 by PAMPA. The series is classed as ADME. The conditions noted are these: read-out: permeability.
Series [24] concerns dengue virus type 2. Briefly: Antiviral activity against DENV2 infected in human HuH7 cells assessed as reduction in virus titer measured after 48 hrs. The series is classed as functional, organism-based. The conditions noted are these: Huh-7, 48 h.
Series [25] addresses Genome polyprotein (dengue virus type 2) (UniProt P29990). Briefly: Competitive inhibition of Dengue virus serotype 2 NS2B-NS3 protease expressed in Escherichia coli BL21 lambda (DE3) cells using varying levels of Abz-Nle-Lys-Arg-Arg-Ser-3-(NO2)Tyr as substrate by Cheng-Prusoff plot analysis.
Series [26] can be described thus: Drug metabolism in pH 7.4 phosphate buffered saline assessed as racemization incubated for 96 hrs at 37 degC RP-HPLC analysis. The series is classed as physicochemical. The conditions noted are these: buffer, pH 7.4, 96 h.

Sequence of Genome polyprotein (West Nile virus) (P06935 whole entry): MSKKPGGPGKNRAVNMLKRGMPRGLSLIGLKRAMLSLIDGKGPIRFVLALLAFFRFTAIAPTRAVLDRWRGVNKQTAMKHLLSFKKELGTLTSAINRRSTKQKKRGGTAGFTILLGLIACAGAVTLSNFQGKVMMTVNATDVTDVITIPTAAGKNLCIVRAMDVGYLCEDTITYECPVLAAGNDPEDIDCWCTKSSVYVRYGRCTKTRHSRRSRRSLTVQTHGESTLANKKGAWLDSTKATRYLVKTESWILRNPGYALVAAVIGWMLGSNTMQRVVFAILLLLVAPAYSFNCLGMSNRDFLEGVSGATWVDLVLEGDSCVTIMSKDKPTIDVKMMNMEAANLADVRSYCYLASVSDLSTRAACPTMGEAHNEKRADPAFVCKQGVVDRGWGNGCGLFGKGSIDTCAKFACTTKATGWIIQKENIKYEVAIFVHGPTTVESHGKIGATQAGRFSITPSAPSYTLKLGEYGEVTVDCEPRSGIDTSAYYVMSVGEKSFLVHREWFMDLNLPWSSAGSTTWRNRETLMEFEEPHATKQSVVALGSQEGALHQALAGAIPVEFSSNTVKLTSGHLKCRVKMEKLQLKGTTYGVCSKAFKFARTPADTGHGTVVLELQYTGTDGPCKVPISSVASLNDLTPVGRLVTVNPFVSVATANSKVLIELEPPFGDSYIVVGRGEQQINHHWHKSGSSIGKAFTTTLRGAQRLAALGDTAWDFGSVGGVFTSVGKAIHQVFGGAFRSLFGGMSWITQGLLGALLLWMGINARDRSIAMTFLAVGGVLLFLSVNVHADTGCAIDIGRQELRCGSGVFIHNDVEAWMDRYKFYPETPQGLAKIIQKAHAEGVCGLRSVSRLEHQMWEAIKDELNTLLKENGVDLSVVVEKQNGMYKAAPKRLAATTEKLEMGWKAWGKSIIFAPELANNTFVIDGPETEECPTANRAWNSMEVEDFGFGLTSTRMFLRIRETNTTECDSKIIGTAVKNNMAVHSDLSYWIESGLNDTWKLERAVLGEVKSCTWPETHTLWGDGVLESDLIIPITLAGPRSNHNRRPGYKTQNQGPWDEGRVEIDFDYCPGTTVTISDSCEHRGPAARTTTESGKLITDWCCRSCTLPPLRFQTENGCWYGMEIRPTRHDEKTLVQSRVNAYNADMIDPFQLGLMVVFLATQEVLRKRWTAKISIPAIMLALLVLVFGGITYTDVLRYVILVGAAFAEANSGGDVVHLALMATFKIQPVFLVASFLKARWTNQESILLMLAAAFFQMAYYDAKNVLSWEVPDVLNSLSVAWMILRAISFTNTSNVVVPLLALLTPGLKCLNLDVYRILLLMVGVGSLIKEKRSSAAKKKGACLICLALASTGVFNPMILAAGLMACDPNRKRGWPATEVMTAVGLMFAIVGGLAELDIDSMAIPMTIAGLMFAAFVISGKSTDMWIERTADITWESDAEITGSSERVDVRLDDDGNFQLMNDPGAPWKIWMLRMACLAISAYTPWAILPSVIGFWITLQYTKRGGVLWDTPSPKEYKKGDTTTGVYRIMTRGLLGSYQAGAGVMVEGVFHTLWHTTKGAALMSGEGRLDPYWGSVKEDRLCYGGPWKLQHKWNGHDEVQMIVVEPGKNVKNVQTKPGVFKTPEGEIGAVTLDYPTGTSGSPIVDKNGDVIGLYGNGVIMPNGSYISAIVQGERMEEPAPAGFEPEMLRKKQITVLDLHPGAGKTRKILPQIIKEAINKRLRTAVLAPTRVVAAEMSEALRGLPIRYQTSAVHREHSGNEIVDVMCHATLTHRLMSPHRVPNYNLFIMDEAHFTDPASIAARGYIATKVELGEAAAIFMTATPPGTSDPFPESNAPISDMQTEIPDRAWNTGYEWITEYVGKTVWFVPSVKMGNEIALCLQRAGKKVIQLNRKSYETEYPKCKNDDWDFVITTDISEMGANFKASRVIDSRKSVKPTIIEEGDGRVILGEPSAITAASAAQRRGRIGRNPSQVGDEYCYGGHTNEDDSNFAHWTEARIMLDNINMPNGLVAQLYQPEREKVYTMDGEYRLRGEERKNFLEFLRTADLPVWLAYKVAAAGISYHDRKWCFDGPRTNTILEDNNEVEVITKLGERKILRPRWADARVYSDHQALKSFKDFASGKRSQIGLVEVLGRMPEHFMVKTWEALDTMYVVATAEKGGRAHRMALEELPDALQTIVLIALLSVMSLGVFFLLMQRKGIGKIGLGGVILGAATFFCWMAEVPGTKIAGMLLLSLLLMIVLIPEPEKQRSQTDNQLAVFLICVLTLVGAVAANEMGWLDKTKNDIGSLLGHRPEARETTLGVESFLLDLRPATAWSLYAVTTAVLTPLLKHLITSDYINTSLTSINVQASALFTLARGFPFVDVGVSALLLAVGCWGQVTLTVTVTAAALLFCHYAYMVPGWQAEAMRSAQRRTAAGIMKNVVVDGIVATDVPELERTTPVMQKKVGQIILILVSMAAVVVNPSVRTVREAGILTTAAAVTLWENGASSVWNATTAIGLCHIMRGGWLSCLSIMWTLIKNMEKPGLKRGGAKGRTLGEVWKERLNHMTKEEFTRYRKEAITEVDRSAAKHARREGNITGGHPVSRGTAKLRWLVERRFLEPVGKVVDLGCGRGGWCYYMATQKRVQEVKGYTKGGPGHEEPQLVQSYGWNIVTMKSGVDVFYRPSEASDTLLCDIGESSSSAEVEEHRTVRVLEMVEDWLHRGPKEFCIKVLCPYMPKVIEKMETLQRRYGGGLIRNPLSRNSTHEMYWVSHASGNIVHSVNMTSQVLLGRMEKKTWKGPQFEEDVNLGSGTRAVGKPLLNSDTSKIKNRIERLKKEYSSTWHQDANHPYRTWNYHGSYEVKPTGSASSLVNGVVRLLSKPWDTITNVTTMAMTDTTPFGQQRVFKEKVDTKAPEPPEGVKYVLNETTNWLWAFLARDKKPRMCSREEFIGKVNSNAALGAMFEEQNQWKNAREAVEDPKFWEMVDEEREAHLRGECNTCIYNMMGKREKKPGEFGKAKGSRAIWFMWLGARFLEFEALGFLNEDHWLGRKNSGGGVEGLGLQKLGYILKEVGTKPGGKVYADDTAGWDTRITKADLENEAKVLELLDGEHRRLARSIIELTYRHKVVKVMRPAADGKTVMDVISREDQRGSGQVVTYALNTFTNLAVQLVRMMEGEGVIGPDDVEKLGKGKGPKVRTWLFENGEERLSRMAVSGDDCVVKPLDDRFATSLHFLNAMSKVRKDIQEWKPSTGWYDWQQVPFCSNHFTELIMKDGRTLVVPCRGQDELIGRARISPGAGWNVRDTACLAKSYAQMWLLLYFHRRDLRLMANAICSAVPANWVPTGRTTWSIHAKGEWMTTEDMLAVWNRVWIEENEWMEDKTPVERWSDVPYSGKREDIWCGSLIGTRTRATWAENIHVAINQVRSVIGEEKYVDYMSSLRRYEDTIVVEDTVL
T2 sequence (P06935 1371-1501 limits assumed): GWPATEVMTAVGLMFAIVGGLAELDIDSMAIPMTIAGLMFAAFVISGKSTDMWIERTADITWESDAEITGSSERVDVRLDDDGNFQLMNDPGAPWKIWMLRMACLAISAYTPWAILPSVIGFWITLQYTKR
T2 sequence (P06935 1502-2120 limits assumed): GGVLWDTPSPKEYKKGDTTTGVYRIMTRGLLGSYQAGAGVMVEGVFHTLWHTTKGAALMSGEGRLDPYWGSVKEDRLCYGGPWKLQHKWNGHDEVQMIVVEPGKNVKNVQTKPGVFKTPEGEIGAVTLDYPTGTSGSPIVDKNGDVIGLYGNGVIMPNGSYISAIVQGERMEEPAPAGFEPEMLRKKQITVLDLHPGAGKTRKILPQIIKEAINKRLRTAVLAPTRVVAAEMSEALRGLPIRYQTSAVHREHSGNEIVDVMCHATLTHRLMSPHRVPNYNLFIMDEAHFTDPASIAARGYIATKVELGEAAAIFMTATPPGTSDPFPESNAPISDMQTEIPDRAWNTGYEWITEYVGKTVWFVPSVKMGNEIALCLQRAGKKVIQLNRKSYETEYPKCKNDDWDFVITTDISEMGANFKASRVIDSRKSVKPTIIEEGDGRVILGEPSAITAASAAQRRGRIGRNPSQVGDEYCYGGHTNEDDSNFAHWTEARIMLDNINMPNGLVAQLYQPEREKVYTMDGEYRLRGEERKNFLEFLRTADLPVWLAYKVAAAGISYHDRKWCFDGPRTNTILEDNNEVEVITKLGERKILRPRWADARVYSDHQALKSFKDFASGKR

For the compound `N=C(N)Nc1ccc(CNC(=O)[C@@H](NC(=O)c2ccc(-c3cccs3)s2)c2ccc(OCc3ccccc3)cc2)cc1.O=C(O)C(F)(F)F`, the inhibition in [1] was 99.7%; in [2], 93.6%; in [5], “Dose-dependent effect”; in [7], 52.6%. For the same compound, in series [3], the CC50 at 24 h was over 50 µM. The “inhibition (INH)” value on Trypsin and against Prothrombin was “Not Active” in each case. Moreover, the EC50 on Genome polyprotein [4] came to 9.3 µM. For the same compound, the IC50 on Genome polyprotein [6] turned out to be 6.5 µM; at Genome polyprotein [8], 6.3 µM. For the same compound, the inhibition entry in [9] was “inactive”.
Turning to `CCCCCC(=O)N[C@H](C(=O)NCc1ccc(NC(=N)N)cc1)c1ccc(OCc2ccccc2)cc1.O=C(O)C(F)(F)F`, the Drug metabolism entry in [10] is “Metabolite_Notdetected”; in series [11] it was “Metabolite_Detected”; in series [16] it was “Metabolite_Detected”; in series [22], “Metabolite_Notdetected”; in series [26] it was “Metabolite_Notdetected”. Also, the IC50 at Genome polyprotein [12] is 11 µM; on Genome polyprotein [14], 13 µM. Further, the Ki on Genome polyprotein [12] was 9.8 µM; at Genome polyprotein [14] it was 12 to 12.4 µM. Besides, the inhibition entry in [13] and in [25] was “Active” in each case. The figures for the inhibition in [15], in series [20] and in series [7] were 95.1%, 102% and 79.8%, respectively. For the same compound, the Drug uptake in series [17] is 7.5 µM; in [19] it was 171 µM. In addition, in series [3], the CC50 at 24 h was over 50 µM. Besides, the “inhibition (INH)” value against Trypsin and on Prothrombin was “Not Active” in each case. Moreover, the Activity result in the series with Huh-7 is “Non-Toxic”. The EC50 at Genome polyprotein [4] worked out at 0.49 µM; in the series with dengue virus type 2 [24], 0.89 µM. Besides, in [18], the R% was found to be 12%. Besides, the inhibition at 10 µM in the series with dengue virus type 2 [21] amounted to 84.5%. Also, the Papp at 5 h, 200 µM in [23] was 1.6 ×10⁻⁶ cm/s.

These data come from ChEMBL document CHEMBL4619777, “A New Class of Dengue and West Nile Virus Protease Inhibitors with Submicromolar Activity in Reporter Gene DENV-2 Protease and Viral Replication Assays” (J Med Chem, 2020).
